Earlier results in patent US20090236541A1, “System and Methods for Optical Imaging” (General Electric Company, priority 2008, published 2009).

How the values were obtained:
[1] = system: mitochondria and/or the endoplasmic reticulum; settings: concentration-dependent manner
[2] = system: heart of a living laboratory rat; settings: living laboratory rat after a thoracotomy
[3] = small molecule form

Row | Compound | partitioning into mitochondria and/or endoplasmic reticulum [1] | imaging of blood flow in the heart [2] | solubility in blood [3]
1 | CN1C(=CC=C2CCCC(C=CC3=[N+](C)c4ccccc4C3(C)C)=C2Cl)C(C)(C)c2ccccc21.[O-][Cl+3]([O-])([O-])[O-] [IR-786] | partitions efficiently into mitochondria and/or the endoplasmic reticulum | successfully applied | 
2 | CC1(C)C(/C=C/C=C/C=C/C=C2\N(CCCCS(=O)(=O)O)c3ccc4ccccc4c3C2(C)C)=[N+](CCCCS(=O)(=O)[O-])c2ccc3ccccc3c21 [Indocyanine green, indocyanine green] |  |  | somewhat less soluble in blood
